{"source": "ChEMBL document CHEMBL1138010", "about": "“Discovery of highly potent, selective, orally bioavailable, metabotropic glutamate subtype 5 (mGlu5) receptor antagonists devoid of cytochrome P450 1A2 inhibitory activity” (Bioorg Med Chem Lett, 2004)", "key": {"[1]": {"assay": "Area under the curve after dosing 2 mg/kg iv and 10 mg/kg po", "format": "ADME, organism-based", "conditions": "rat, in vivo"}, "Cytochrome P450 1A2": {"target": "T1, Cytochrome P450 1A2 (Homo sapiens, UniProt P05177)", "T1 sequence (P05177 whole entry)": "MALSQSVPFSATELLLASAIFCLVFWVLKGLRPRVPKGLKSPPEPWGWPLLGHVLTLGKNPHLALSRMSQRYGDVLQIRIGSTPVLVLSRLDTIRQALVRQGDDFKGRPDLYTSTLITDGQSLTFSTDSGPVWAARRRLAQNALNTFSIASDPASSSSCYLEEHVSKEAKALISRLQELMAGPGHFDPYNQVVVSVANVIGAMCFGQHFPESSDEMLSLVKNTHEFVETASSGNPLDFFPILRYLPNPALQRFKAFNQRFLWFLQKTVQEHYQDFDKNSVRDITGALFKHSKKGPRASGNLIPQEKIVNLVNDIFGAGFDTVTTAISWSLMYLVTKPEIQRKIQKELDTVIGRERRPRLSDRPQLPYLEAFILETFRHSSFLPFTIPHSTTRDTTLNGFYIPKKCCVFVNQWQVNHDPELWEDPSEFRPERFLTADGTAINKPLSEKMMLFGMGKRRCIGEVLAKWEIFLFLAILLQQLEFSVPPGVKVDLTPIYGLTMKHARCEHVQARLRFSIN", "assay": "Antagonistic activity against recombinant cytochrome P450 1A2", "format": "ADME", "conditions": "recombinant enzyme"}, "[2]": {"target": "Metabotropic glutamate receptor 5 (Rattus norvegicus) (UniProt P31424)", "sequence (P31424 21-1203 limits assumed)": "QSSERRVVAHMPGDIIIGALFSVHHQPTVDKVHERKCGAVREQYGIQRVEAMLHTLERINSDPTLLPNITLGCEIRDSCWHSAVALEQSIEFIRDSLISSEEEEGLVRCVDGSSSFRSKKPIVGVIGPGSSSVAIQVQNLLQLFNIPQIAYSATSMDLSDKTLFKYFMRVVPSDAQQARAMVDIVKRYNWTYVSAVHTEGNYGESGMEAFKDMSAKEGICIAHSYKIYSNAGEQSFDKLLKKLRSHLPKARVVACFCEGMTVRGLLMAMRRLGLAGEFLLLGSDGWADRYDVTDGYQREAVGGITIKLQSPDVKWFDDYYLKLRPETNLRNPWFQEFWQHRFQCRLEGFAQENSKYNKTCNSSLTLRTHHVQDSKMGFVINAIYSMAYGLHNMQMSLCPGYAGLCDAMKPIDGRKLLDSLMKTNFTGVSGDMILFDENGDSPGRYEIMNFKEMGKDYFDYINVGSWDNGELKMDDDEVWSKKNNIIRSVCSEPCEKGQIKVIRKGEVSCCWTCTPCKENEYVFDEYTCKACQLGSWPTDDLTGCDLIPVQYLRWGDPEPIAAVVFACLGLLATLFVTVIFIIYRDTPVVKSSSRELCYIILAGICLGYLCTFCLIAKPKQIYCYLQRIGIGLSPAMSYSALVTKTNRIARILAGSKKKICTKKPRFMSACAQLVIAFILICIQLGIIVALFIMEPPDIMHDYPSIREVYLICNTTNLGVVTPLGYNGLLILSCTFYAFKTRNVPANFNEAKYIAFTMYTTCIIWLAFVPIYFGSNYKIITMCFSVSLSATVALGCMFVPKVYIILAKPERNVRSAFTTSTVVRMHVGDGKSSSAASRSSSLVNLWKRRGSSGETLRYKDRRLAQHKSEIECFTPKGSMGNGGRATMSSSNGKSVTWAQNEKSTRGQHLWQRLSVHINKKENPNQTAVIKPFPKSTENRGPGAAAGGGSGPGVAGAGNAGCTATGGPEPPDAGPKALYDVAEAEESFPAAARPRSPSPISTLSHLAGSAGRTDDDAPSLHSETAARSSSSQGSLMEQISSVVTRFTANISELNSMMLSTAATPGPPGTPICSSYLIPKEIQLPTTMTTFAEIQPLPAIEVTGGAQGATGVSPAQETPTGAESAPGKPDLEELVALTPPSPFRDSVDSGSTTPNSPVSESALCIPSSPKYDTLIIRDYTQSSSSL", "assay": "Antagonistic activity against Metabotropic glutamate receptor 5 in [Ca2+] flux assay using glutamate (10 uM) as agonist", "format": "functional"}, "Rattus norvegicus": {"tested_on": "Rattus norvegicus", "assay": "Concentration in rat brain measured at 1 hr post-administration of 10 mg/kg ip", "format": "functional, organism-based", "set-up": "dose 10 mg/kg"}, "Cytochrome P450 2C19": {"target": "Cytochrome P450 2C19 (Homo sapiens, UniProt P33261)", "sequence (P33261 whole entry)": "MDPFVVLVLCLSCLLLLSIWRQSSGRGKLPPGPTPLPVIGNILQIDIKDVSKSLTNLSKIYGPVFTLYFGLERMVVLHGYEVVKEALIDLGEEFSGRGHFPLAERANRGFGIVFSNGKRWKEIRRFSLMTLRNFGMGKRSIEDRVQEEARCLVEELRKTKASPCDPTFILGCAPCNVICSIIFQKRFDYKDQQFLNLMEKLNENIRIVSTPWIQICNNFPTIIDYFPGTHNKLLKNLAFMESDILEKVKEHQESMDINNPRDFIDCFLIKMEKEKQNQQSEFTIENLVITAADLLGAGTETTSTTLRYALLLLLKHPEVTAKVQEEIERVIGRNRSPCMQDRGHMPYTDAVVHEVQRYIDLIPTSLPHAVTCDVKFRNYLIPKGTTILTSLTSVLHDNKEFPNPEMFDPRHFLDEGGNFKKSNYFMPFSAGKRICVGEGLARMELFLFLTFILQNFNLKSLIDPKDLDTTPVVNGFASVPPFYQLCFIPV", "assay": "Antagonistic activity against recombinant cytochrome P450 2C19", "format": "ADME", "conditions": "recombinant enzyme"}, "[3]": {"assay": "Plasma clearance after dosing 2 mg/kg iv and 10 mg/kg po", "format": "ADME, organism-based", "conditions": "rat"}, "[4]": {"assay": "Oral bioavailability after dosing 2 mg/kg iv and 10 mg/kg po", "format": "ADME, organism-based", "conditions": "rat, in vivo"}, "[5]": {"assay": "Volume of distribution after dosing 2 mg/kg iv and 10 mg/kg po", "format": "ADME, organism-based", "conditions": "rat, in vivo"}, "Cytochrome P450 2D6": {"target": "Cytochrome P450 2D6 (Homo sapiens, UniProt P10635)", "sequence (P10635 whole entry)": "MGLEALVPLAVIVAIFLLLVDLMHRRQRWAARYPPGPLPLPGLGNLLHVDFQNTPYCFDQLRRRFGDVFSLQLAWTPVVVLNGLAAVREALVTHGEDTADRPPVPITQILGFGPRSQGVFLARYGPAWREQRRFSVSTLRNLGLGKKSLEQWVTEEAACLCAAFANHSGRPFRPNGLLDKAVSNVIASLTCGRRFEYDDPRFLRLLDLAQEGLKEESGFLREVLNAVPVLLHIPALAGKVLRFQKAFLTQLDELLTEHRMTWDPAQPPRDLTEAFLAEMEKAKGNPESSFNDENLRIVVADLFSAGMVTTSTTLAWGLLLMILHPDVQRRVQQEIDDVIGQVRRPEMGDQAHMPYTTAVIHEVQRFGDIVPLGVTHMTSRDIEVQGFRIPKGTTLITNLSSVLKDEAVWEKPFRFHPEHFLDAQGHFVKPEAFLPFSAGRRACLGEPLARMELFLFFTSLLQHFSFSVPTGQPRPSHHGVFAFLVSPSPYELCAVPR", "assay": "Antagonistic activity against recombinant cytochrome P450 2D6", "format": "ADME", "conditions": "recombinant enzyme"}, "Cytochrome P450 2C9": {"target": "Cytochrome P450 2C9 (Homo sapiens, UniProt P11712)", "sequence (P11712 whole entry)": "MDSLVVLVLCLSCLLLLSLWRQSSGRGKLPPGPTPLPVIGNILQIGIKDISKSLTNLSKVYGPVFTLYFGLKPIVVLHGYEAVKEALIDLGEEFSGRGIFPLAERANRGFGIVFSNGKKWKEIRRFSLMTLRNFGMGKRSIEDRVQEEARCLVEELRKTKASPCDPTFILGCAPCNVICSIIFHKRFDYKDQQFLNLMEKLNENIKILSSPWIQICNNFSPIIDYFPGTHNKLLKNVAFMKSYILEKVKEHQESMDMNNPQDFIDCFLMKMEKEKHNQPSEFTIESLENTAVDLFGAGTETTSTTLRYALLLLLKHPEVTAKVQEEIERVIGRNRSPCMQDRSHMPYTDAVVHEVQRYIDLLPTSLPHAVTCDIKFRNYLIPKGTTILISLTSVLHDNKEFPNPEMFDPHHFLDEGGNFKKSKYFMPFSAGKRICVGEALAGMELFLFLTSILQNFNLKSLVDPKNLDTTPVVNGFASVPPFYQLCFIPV", "assay": "Antagonistic activity against recombinant cytochrome P450 2C9", "format": "ADME", "conditions": "recombinant enzyme"}, "Cytochrome P450 3A4": {"target": "Cytochrome P450 3A4 (Homo sapiens, UniProt P08684)", "sequence (P08684 whole entry)": "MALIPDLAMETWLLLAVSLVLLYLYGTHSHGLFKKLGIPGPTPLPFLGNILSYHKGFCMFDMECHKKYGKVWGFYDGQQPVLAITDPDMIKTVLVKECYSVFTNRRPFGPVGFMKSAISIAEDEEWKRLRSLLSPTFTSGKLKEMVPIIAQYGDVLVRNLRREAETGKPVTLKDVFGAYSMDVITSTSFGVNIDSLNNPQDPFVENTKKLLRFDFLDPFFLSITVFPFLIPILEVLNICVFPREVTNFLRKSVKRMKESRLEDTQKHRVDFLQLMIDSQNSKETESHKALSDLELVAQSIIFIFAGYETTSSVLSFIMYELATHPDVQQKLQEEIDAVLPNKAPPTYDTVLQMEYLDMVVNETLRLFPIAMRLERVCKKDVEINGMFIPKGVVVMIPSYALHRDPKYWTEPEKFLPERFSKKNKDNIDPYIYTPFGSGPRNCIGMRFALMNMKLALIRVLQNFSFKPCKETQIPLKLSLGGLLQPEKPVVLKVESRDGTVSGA", "assay": "Antagonistic activity against recombinant cytochrome P450 3A4", "format": "ADME", "conditions": "recombinant enzyme"}, "[6]": {"target": "Metabotropic glutamate receptor 5 (Rattus norvegicus, UniProt P31424)", "sequence (P31424 whole entry)": "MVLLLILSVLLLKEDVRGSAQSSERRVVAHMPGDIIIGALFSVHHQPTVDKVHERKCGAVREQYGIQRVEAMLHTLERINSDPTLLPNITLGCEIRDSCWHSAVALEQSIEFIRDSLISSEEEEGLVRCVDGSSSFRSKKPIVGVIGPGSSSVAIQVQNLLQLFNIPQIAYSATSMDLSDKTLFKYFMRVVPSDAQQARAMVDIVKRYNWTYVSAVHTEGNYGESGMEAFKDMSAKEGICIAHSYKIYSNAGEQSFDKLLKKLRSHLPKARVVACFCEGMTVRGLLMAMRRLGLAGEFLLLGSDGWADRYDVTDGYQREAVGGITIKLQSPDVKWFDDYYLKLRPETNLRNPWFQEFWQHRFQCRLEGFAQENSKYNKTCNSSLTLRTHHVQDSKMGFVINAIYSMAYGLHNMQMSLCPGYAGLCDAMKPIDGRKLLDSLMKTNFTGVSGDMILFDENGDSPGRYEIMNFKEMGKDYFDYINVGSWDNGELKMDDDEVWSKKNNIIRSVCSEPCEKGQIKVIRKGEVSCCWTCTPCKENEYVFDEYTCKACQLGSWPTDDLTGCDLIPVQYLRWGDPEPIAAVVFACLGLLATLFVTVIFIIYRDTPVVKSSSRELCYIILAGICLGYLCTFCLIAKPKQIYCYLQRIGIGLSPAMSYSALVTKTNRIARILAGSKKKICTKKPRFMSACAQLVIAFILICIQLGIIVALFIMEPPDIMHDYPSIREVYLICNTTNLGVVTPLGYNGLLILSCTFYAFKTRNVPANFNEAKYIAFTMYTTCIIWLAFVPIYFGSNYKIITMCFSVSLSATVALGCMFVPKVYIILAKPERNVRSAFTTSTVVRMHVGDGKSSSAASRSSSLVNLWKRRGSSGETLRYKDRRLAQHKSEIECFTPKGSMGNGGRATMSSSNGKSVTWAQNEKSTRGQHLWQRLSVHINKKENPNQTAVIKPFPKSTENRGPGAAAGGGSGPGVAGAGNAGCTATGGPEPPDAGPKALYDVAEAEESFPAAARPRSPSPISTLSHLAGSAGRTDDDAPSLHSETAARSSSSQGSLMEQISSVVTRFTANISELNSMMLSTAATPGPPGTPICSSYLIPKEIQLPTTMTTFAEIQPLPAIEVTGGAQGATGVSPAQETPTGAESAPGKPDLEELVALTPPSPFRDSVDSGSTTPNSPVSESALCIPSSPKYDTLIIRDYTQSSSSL", "assay": "Binding affinity towards Metabotropic glutamate receptor was determined by displacing [3H]3-methoxy-5-(pyridin-2-ylethynyl)pyridine from rat cortical membranes"}, "[7]": {"assay": "Volume of distribution was determined", "format": "ADME, organism-based", "conditions": "rat, in vivo"}, "[8]": {"assay": "Oral bioavailability", "format": "ADME, organism-based", "conditions": "rat, in vivo"}, "[9]": {"target": "Metabotropic glutamate receptor 5 (Rattus norvegicus) (UniProt P31424)", "assay": "Percent occupancy of the Metabotropic glutamate receptor 5 by the [3H]3-methoxy-5-(pyridin-2-ylethynyl)pyridine ligand 1 hr post-administration of 10 mg/kg compound ip", "format": "organism-based", "set-up": "dose 10 mg/kg"}, "[10]": {"assay": "Plasma clearance was determined", "format": "ADME, organism-based", "conditions": "rat"}, "[11]": {"assay": "Half life was determined", "format": "ADME", "conditions": "rat"}, "[12]": {"assay": "Area under the curve was determined", "format": "ADME", "conditions": "rat"}}, "note": "pKi: −log10 of the molar value.", "data": [{"smiles": "N#Cc1cc(F)cc(-n2nnc(-c3ccccn3)n2)c1", "values": [{"measurement": "AUC", "setting": "[1]", "value": 9.6, "unit": "µM·h"}, {"measurement": "Activity", "setting": "Cytochrome P450 1A2", "value": 2.3, "unit": "µM"}, {"measurement": "Activity", "setting": "[2]", "value": 3.9, "unit": "nM"}, {"measurement": "Concentration", "setting": "Rattus norvegicus", "value": 9.7, "unit": "µM"}, {"measurement": "Activity", "setting": "Cytochrome P450 2C19", "value": "> 14", "unit": "µM"}, {"measurement": "clearance", "setting": "[3]", "value": 15, "unit": "mL/min/kg"}, {"measurement": "bioavailability", "setting": "[4]", "value": 24, "unit": "%"}, {"measurement": "Vd", "setting": "[5]", "value": 1.1, "unit": "L/kg"}, {"measurement": "Activity", "setting": "Cytochrome P450 2D6", "value": "> 14", "unit": "µM"}, {"measurement": "Activity", "setting": "Cytochrome P450 2C9", "value": "> 14", "unit": "µM"}, {"measurement": "Activity", "setting": "Cytochrome P450 3A4", "value": "> 14", "unit": "µM"}]}, {"smiles": "N#Cc1cccc(-n2nnc(-c3cc[nH]n3)n2)c1", "values": [{"measurement": "Activity", "setting": "[2]", "value": "> 2000", "unit": "nM"}, {"measurement": "pKi", "setting": "[6]", "value": "< 5.70"}]}, {"smiles": "N#Cc1cccc(-n2nnc(-c3c[nH]cn3)n2)c1", "values": [{"measurement": "Activity", "setting": "[2]", "value": "> 2000", "unit": "nM"}, {"measurement": "pKi", "setting": "[6]", "value": "< 5.70"}]}, {"smiles": "Cc1c[nH]c(-c2nnn(-c3cc(F)cc(C#N)c3)n2)n1", "values": [{"measurement": "Vd", "setting": "[7]", "value": 0.6, "unit": "L/kg"}, {"measurement": "Activity", "setting": "Cytochrome P450 1A2", "value": "> 14", "unit": "µM"}, {"measurement": "bioavailability", "setting": "[8]", "value": 22, "unit": "%"}, {"measurement": "Occupancy", "setting": "[9]", "value": 97, "unit": "%"}, {"measurement": "Activity", "setting": "[2]", "value": 77, "unit": "nM"}, {"measurement": "Concentration", "setting": "Rattus norvegicus", "value": 8.1, "unit": "µM"}, {"measurement": "pKi", "setting": "[6]", "value": 7.72}, {"measurement": "Activity", "setting": "Cytochrome P450 2C19", "value": "> 14", "unit": "µM"}, {"measurement": "clearance", "setting": "[10]", "value": 40, "unit": "mL/min/kg"}, {"measurement": "Activity", "setting": "Cytochrome P450 2D6", "value": "> 14", "unit": "µM"}, {"measurement": "half-life", "setting": "[11]", "value": 18, "unit": "min"}, {"measurement": "Activity", "setting": "Cytochrome P450 2C9", "value": "> 14", "unit": "µM"}, {"measurement": "AUC", "setting": "[12]", "value": 3.4, "unit": "µM·h"}, {"measurement": "Activity", "setting": "Cytochrome P450 3A4", "value": "> 14", "unit": "µM"}]}, {"smiles": "N#Cc1cccc(-n2nnc(-c3ncc[nH]3)n2)c1", "values": [{"measurement": "Activity", "setting": "Cytochrome P450 1A2", "value": "> 14", "unit": "µM"}, {"measurement": "Activity", "setting": "[2]", "value": 77, "unit": "nM"}, {"measurement": "pKi", "setting": "[6]", "value": 7.47}]}, {"smiles": "N#Cc1cccc(-n2nnc(-c3cscn3)n2)c1", "values": [{"measurement": "Activity", "setting": "Cytochrome P450 1A2", "value": 1.7, "unit": "µM"}, {"measurement": "Activity", "setting": "[2]", "value": 148, "unit": "nM"}, {"measurement": "pKi", "setting": "[6]", "value": 6.80}]}, {"smiles": "Fc1cc(Oc2cccnc2)cc(-n2nnc(-c3ncc[nH]3)n2)c1", "values": [{"measurement": "Activity", "setting": "Cytochrome P450 1A2", "value": 5.1, "unit": "µM"}, {"measurement": "Occupancy", "setting": "[9]", "value": 69, "unit": "%"}, {"measurement": "Activity", "setting": "[2]", "value": 9.7, "unit": "nM"}, {"measurement": "pKi", "setting": "[6]", "value": 8.49}]}, {"smiles": "Cc1ccncc1-c1cc(F)cc(-n2nnc(-c3ncc[nH]3)n2)c1", "values": [{"measurement": "Activity", "setting": "Cytochrome P450 1A2", "value": 3.5, "unit": "µM"}, {"measurement": "Occupancy", "setting": "[9]", "value": 29, "unit": "%"}, {"measurement": "Activity", "setting": "[2]", "value": 20, "unit": "nM"}, {"measurement": "pKi", "setting": "[6]", "value": 8.46}]}, {"smiles": "N#Cc1cccc(-n2nnc(-c3ccccn3)n2)c1", "values": [{"measurement": "Activity", "setting": "Cytochrome P450 1A2", "value": 3.8, "unit": "µM"}, {"measurement": "Occupancy", "setting": "[9]", "value": 90, "unit": "%"}, {"measurement": "Activity", "setting": "[2]", "value": 73, "unit": "nM"}, {"measurement": "pKi", "setting": "[6]", "value": 6.99}]}, {"smiles": "N#Cc1cccc(-n2nnc(-c3nccs3)n2)c1", "values": [{"measurement": "Activity", "setting": "Cytochrome P450 1A2", "value": 1, "unit": "µM"}, {"measurement": "Activity", "setting": "[2]", "value": 142, "unit": "nM"}, {"measurement": "pKi", "setting": "[6]", "value": 6.74}]}, {"smiles": "Fc1cc(Oc2cccnc2)cc(-n2nnc(-c3ccccn3)n2)c1", "values": [{"measurement": "Activity", "setting": "Cytochrome P450 1A2", "value": 0.7, "unit": "µM"}, {"measurement": "Occupancy", "setting": "[9]", "value": 90, "unit": "%"}, {"measurement": "Activity", "setting": "[2]", "value": 6.7, "unit": "nM"}]}, {"smiles": "N#Cc1cc(F)cc(-n2nnc(-c3ncc[nH]3)n2)c1", "values": [{"measurement": "Activity", "setting": "Cytochrome P450 1A2", "value": "> 14", "unit": "µM"}, {"measurement": "Occupancy", "setting": "[9]", "value": 95, "unit": "%"}, {"measurement": "Activity", "setting": "[2]", "value": 47, "unit": "nM"}, {"measurement": "pKi", "setting": "[6]", "value": 8.03}]}, {"smiles": "Cc1ccncc1-c1cc(F)cc(-n2nnc(-c3ccccn3)n2)c1", "values": [{"measurement": "Activity", "setting": "Cytochrome P450 1A2", "value": 0.5, "unit": "µM"}, {"measurement": "Occupancy", "setting": "[9]", "value": 95, "unit": "%"}, {"measurement": "Activity", "setting": "[2]", "value": 5.2, "unit": "nM"}, {"measurement": "pKi", "setting": "[6]", "value": 8.74}]}]}
